Assay results taken from patent US20090131481A1, “Transcription Factor Modulating Compounds and Methods of Use Thereof” (Paratek Pharmaceuticals, Inc., published 2009).
Read-outs that look alike come from different tables or passages of the source.

Assays:
ExsA = molecular target: T1, ExsA (Pseudomonas aeruginosa, UniProt P26993); assay: Chemiluminescence-based ExsA-DNA binding assay; parameters: species or system P. aeruginosa; conditions: Table 7, cell-free system; read-out: ExsA EC50
T1 construct: made in house
T1 sequence (P26993 1-278): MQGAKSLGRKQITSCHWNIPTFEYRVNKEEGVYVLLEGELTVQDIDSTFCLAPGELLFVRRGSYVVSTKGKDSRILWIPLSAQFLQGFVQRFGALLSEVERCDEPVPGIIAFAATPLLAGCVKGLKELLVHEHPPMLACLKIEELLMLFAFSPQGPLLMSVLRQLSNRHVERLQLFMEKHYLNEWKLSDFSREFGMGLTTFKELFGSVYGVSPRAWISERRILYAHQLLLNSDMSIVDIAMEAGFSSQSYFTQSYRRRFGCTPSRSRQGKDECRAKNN

Y. pseudotuberculosis = assay: microbe, parasite or virus in culture; conditions: Yersinia pseudotuberculosis, J774, read-out: % Cytotoxicity
LcrF (VirF) = LcrF (VirF) (Yersinia pestis, UniProt P28808); assay: biochemical; format: binding, Y. pseudotuberculosis
Sequence of LcrF (VirF) (P28808 whole entry, looked up): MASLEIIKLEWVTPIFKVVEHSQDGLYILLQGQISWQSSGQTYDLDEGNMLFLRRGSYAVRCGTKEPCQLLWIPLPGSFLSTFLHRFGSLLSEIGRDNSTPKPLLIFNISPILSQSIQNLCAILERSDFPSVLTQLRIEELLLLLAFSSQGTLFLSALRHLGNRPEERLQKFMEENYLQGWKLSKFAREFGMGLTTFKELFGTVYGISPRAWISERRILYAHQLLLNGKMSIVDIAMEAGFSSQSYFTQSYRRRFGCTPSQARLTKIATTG

P. aeruginosa = P. aeruginosa cytotoxicity whole cell assay (J774 cells, LDH release); conditions: relative to vehicle treated cells infected with wild type P. aeruginosa
[1] = read-out: EC50 for inhibition of LcrF(VirF)-DNA binding
[2] = EC50 for inhibition of LcrF(VirF)-DNA binding

| SMILES | EC50 (ExsA) | activity at 50 µg/mL (Y. pseudotuberculosis) | EC50 (LcrF (VirF); [1]) | EC50 (LcrF (VirF); [2]) | Cytotoxicity at 50 μg/mL Pseudomonas (P. aeruginosa) |
| --- | --- | --- | --- | --- | --- |
| O=C(Nc1ccc(-c2nc3ccncc3n2O)cc1)c1ccc(F)cc1 [EJ] | > 25 µM | < 75% | > 25 µM |  |  |
| O=C(/C=C/c1ccc(F)cc1)Nc1ccc(-c2nc3ccncc3n2O)cc1 [EK] | > 25 µM | < 75% | > 25 µM |  |  |
| CCc1cc(-c2nc3ccc([N+](=O)[O-])cc3n2O)ccc1NC(=O)c1ccc(F)cc1 [DK] | > 25 µM | < 75% |  | 10 to 25 µM |  |
| O=C(/C=C/c1ccc(F)c(F)c1)Nc1ccc(-c2nc3ccc([N+](=O)[O-])cc3n2O)cc1 [W] | 10 to 25 µM | < 75% |  | 10 to 25 µM |  |
| O=C(Nc1ccc(-c2nc3ccc([N+](=O)[O-])cc3n2O)nc1)c1ccc(F)cc1 [DQ] | > 25 µM | < 75% |  | > 25 µM |  |
| O=C(CCc1ccc(F)cc1)Nc1ccc(-c2nc3ccc([N+](=O)[O-])cc3n2O)cc1 [L] | > 25 µM |  |  | > 25 µM |  |
| CN1CCN(CCOc2cc3nc(-c4ccc(NC(=O)/C=C/c5ccc(F)cc5)cc4)n(O)c3cc2[N+](=O)[O-])CC1 [FR] |  |  |  |  | * (reduced P. aeruginosa cytotoxicity to 99-75% of untreated, wild type levels at 50 mg/mL) |
| O=C(Nc1ccc2nc(-c3ccc([N+](=O)[O-])cc3)n(O)c2c1)c1ccc(F)cc1 [CW] |  | < 75% | > 25 µM |  |  |
| O=C(Nc1ccc(-c2nc3ccc([N+](=O)[O-])cc3n2O)c(OCP(=O)(O)O)c1)c1ccc(F)cc1 [EC, [5-(4-Fluoro-benzoylamino)-2-(1-hydroxy-6-nitro-1H-benzoimidazol-2-yl)-phenoxymethyl]-phosphonic acid] | > 25 µM | < 75% | > 25 µM |  |  |
| O=C(/C=C/c1ccccc1)Nc1ccc(-c2nc3ccc([N+](=O)O)cc3n2O)cc1 [J] | < 10 µM | < 75% |  | < 10 µM |  |
| O=C(O)c1ccc(C(=O)Nc2ccc(-c3nc4ccc([N+](=O)[O-])cc4n3O)cc2)cc1 [AI] | > 25 µM |  |  |  |  |
| CC(=O)c1ccc(C(=O)Nc2ccc(-c3nc4ccc([N+](=O)[O-])cc4n3O)cc2C)cc1 [ER] |  | < 75% | > 25 µM |  |  |
| CC(=NO)c1ccc2nc(-c3ccc(NC(=O)c4ccc(N(C)C)cc4)cc3)n(O)c2c1 [DF] | > 25 µM | < 75% |  | > 25 µM |  |
| O=C(Nc1ccc(-c2nc3ccc([N+](=O)[O-])cc3n2O)cc1)c1ccccc1F [Q] |  |  |  | > 25 µM |  |
| NS(=O)(=O)c1ccc(C(=O)Nc2ccc(-c3nc4ccc([N+](=O)[O-])cc4n3O)cc2)cc1 [AF] | 10 to 25 µM |  |  |  |  |
| O=C(Nc1ccc(-c2nc3ccc([N+](=O)[O-])cc3n2O)cc1)c1ccc(N2CCOCC2)cc1 [AD] | 10 to 25 µM |  |  |  |  |
| Cc1ccccc1C(=O)Nc1ccc(-c2nc3ccc([N+](=O)[O-])cc3n2O)cc1 [P] |  |  |  | > 25 µM |  |
| O=C(NCc1ccc(-c2nc3ccc([N+](=O)[O-])cc3n2O)cc1)c1ccc(F)cc1 [Z] | > 25 µM |  |  | > 25 µM |  |
| NC(=NO)c1ccc2nc(-c3ccc(NC(=O)c4ccc(F)cc4)cc3)n(O)c2c1 [CX] | > 25 µM | < 75% |  | > 25 µM |  |
| CCOP(=O)(COn1c(-c2ccc(NC(=O)c3ccc(F)cc3)cc2)nc2ccc([N+](=O)[O-])cc21)OCC [EG] | > 25 µM | < 75% | > 25 µM |  |  |
| O=C(Nc1ccc(-c2nc3ccc([N+](=O)[O-])cc3n2O)cc1)c1ccc2c(c1)CCCC2=O [EP] | > 25 µM | < 75% |  | > 25 µM |  |
| CC(=O)c1ccc(/C=C/C(=O)Nc2ccc(-c3nc4cc(OCCN5CCN(C)CC5)c([N+](=O)[O-])cc4n3O)cc2)cc1 [FU] |  |  |  |  | ** (reduced P. aeruginosa cytotoxicity below 75% of untreated, wild type levels at 50 mg/mL) |

| SMILES | EC50 (ExsA) | activity at 50 µg/mL (Y. pseudotuberculosis) | EC50 (LcrF (VirF); [1]) | EC50 (LcrF (VirF); [2]) | Cytotoxicity at 50 μg/mL Pseudomonas (P. aeruginosa) |
| --- | --- | --- | --- | --- | --- |
| CS(=O)(=O)c1ccc(C(=O)Nc2ccc(-c3nc4ccc([N+](=O)[O-])cc4n3O)cc2)cc1 [AG] | > 25 µM |  |  |  |  |
| O=[N+]([O-])c1ccc2nc(-c3ccc(C#Cc4ccc(F)cc4)cc3)n(O)c2c1 [R] | > 25 µM |  |  | > 25 µM |  |
| N#Cc1ccc(/C=C/C(=O)Nc2ccc(-c3nc4ccc([N+](=O)[O-])cc4n3O)cc2)cc1 [X] | < 10 µM | < 75% |  | 10 to 25 µM |  |
| O=C(Nc1ccc(-c2nc3ccc([N+](=O)[O-])cc3n2O)cc1)c1ccc(-n2cccn2)cc1 [AB] | < 10 µM |  |  |  |  |
| O=C(Nc1ccc(-c2nc3ccc([N+](=O)[O-])cc3n2OCP(=O)(O)O)cc1)c1ccc(F)cc1 [DV] | > 25 µM | < 75% | > 25 µM |  |  |
| COc1ccccc1/C=C/C(=O)Nc1ccc(-c2nc3ccc([N+](=O)[O-])cc3n2O)cc1 [U] | < 10 µM |  |  | 10 to 25 µM |  |
| O=C(Nc1ccc(-c2nc3ccc([N+](=O)[O-])cc3n2O)cc1)c1ccc(O)cc1 [AE] | 10 to 25 µM |  |  |  |  |
| NC(=O)c1ccc2nc(-c3ccc(NC(=O)c4ccc(F)cc4)cc3)n(O)c2c1 [DO, 2-[4-(4-Fluoro-benzoylamino)-phenyl]-3-hdroxy-3H-benzoimidazole-5-carboxylic acid amide] | > 25 µM | < 75% | > 25 µM |  |  |
| COc1ccc(/C=C/C(=O)Nc2ccc(-c3nc4ccc([N+](=O)[O-])cc4n3O)cc2)cc1 [T] | < 10 µM | < 75% |  | < 10 µM |  |
| O=C(Nc1ccc(-c2nc3ccc([N+](=O)[O-])cc3n2O)cc1)c1ccc(-n2cncn2)cc1 [K] | < 10 µM | < 75% |  | 10 to 25 µM |  |
| CC(=O)Nc1ccc(C(=O)Nc2ccc(-c3nc4ccc([N+](=O)[O-])cc4n3O)cc2)cc1 [AC] | < 10 µM | < 75% |  | 10 to 25 µM |  |
| CN(C)CCN(C)c1cc2nc(-c3ccc(NC(=O)/C=C/c4ccc(F)cc4)cc3)n(O)c2cc1[N+](=O)[O-] [FQ] |  |  |  |  | ** (reduced P. aeruginosa cytotoxicity below 75% of untreated, wild type levels at 50 mg/mL) |
| O=C(/C=C/c1ccc(O)cc1)Nc1ccc(-c2nc3ccc([N+](=O)[O-])cc3n2O)cc1 [AN] | 10 to 25 µM |  |  |  |  |
| O=C(/C=C/c1ccc(C(F)(F)F)cc1)Nc1ccc(-c2nc3ccc([N+](=O)[O-])cc3n2O)cc1 [Y] | 10 to 25 µM |  |  | < 10 µM |  |
| C/C(=C\c1ccccc1)C(=O)Nc1ccc(-c2nc3ccc([N+](=O)[O-])cc3n2O)cc1 [CT] | > 25 µM | < 75% |  | > 25 µM |  |
| O=C(Nc1ccc(-c2nc3ccc([N+](=O)[O-])cc3n2O)cc1)c1cccc(F)c1 [N] |  |  |  | > 25 µM |  |
| O=C(O)COn1c(-c2ccc(NC(=O)c3ccc(F)cc3)cc2)nc2ccc([N+](=O)[O-])cc21 [DG, {2-[4-(4-Fluoro-benzoylamino)-phenyl]-6-nitro-benzoimidazol-1-yloxy}-acetic acid] |  | < 75% |  | > 25 µM |  |
| Cc1cccc(C(=O)Nc2ccc(-c3nc4ccc([N+](=O)[O-])cc4n3O)cc2)c1 [O] |  |  |  | > 25 µM |  |
| Cc1cc(-c2nc3ccc([N+](=O)[O-])cc3n2O)ccc1NC(=O)/C=C/c1ccc(F)cc1 [EN] | > 25 µM | < 75% |  | 10 to 25 µM |  |
| CC(C)c1ccc(/C=C/C(=O)Nc2ccc(-c3nc4ccc([N+](=O)[O-])cc4n3O)cc2)cc1 [CS] | > 25 µM | < 75% |  | > 25 µM |  |
| O=C(Cc1ccc(F)cc1)Nc1ccc(-c2nc3ccc([N+](=O)[O-])cc3n2O)cc1 [G] | > 25 µM |  |  | > 25 µM |  |
